Assay results as given in patent US20110065663A1, “ANTI-CANCER COMBINATION THERAPY” (Katholieke Universiteit Leuven, K.U. Leuven R&D, priority 2008, published 2011).
Where “and” joins values, the source holds several entries; their conditions need not be identical. Identical values can stand only once. Like-named read-outs stand apart in the source and are kept apart here.

Key:
Assay type in all cases: cell-based, human
MCF-7 cells [1] = test: Tumor cell proliferation assay, uninfected MCF-7 cells; settings: for IC50: Homo sapiens, uninfected MCF-7
Protocol: MCF-7 and MCF-7/HYOR cells were seeded in 48-well plates at 10,000 cells/cm^2. […] of the test compounds (5FU, 5′DFUR, CIdUrd, BrdUrd, IdUrd and TFT) with or without 10 μM TPi were added. The cells were incubated for another 4 days, trypsinized and counted by a Coulter counter (Analis, Suarlée, Belgium). In some experiments, the antibiotic plasmocin was added one or three days before addition of the test compounds.

MCF-7/HYOR cells [2] = test: Tumor cell proliferation assay, M. hyorhinis-infected MCF-7 cells; settings: for IC50: Homo sapiens, MCF7, M. hyorhinis-infected MCF-7
Protocol: Mycoplasma hyorhinis (ATCC 17981) was obtained from the American Type Culture Collection (ATCC, Manassas, Va.). The freeze-dried bacteria were reconstituted by adding 1 ml of DMEM. […] The co-culture of MCF-7 cells and M. hyorhinis was maintained under the same conditions as the uninfected MCF-7 cells. […] The cells were incubated for another 4 days, trypsinized and counted by a Coulter counter (Analis, Suarlée, Belgium).

MCF-7/HYOR cell cultures = test: Nucleoside metabolism experiments, distribution of drug-derived radiolabel in MCF-7/HYOR cell cultures; settings: 24 h; 1 μCi; FIG. 5
Protocol: Next, the cells were trypsinized, transferred to Eppendorf tubes and centrifuged for 10 minutes at 1,400 rpm. The pellet was resuspended in 1 ml absolute ice-cold methanol and kept on ice for 20 minutes. After centrifugation for 20 minutes at 13,000 rpm the pellet was washed twice with methanol, resuspended in methanol and transferred to scintillation vials containing 9 ml of Ready safe liquid scintillation reagent (‘Hisafe 3’, Perkin Elmer, Waltham, Mass.). The radioactivity was measured by a Liquid scintillation analyzer (2300 TR, Packard, Canberra, Australia). […] Next, the cells were incubated in 0.5 ml absolute ice-cold methanol and kept on ice for 20 minutes. After centrifugation for 20 minutes at 13,000 rpm, the supernatant was subjected to HPLC analysis. […] The amount of compound incorporated into nucleic acids was measured as described above.

OST.TK^− cells = test: Cytostatic activity in M. hyorhinis-infected osteosarcoma cells
MDA-MB-231 cells = test: Cytostatic activity in M. hyorhinis-infected MDA-MB-231 breast carcinoma cells
MCF-7 cells [3] = test: Flow cytometry, cell cycle arrest in MCF-7 cells
MCF-7/HYOR cells [4] = test: Flow cytometry, cell cycle arrest in MCF-7/HYOR cells
MCF-7 cells [5] = test: Gemcitabine metabolite distribution in MCF-7 cells (HPLC); settings: 24 h; 1 μCi; FIG. 5
Protocol: MCF-7 and MCF-7/HYOR cells were seeded and treated with 1 μCi of nucleoside with and without TPi as described above. […] Next, the cells were incubated in 0.5 ml absolute ice-cold methanol and kept on ice for 20 minutes. After centrifugation for 20 minutes at 13,000 rpm, the supernatant was subjected to HPLC analysis. The nucleobases, nucleosides and nucleotides in the supernatant were separated by a Partisphere 10 SAX anion exchange column (Whatmann International Ltd., Maidstone, England) as described earlier (Balzarini J. et al., AIDS 2002; 16:2159-63), while the nucleobases and nucleosides present in the collected medium were separated using an RP-8 column. The amount of compound incorporated into nucleic acids was measured as described above.

[6] = IC50 in the absence of TPi to IC50 in the presence of TPi

Q: Which IC50 (MCF-7 cells [1]; MCF7, 96 h, no TPi, 4 days, read-out: IC50 MCF-7 As such) does the source give for Nc1ccn([C@@H]2O[C@H](CO)[C@@H](O)C2(F)F)c(=O)n1 [gemcitabine, 2′,2′-difluorodeoxycytidine] here?
A: Its IC50 is 7.3 ± 3.6 nM.

Q: What about the IC50 (MCF-7 cells [1]; MCF7, with 10 μM TPi, read-out: IC50 MCF-7 +TPi (10 μM)) of the same molecule?
A: Its IC50 is 6.3 ± 2.2 nM.

Q: And the “Ratio (1)/(2) MCF-7” value (MCF-7 cells [1]; [6])?
A: Its value is 1.2.

Q: What about the IC50 (MCF-7/HYOR cells [2]; no TPi, no plasmocin, read-out: IC50 MCF-7/HYOR As such) of the same molecule?
A: The IC50 was 80 ± 28 nM.

Q: And the IC50 (MCF-7/HYOR cells [2]; with 10 μM TPi, read-out: IC50 MCF-7/HYOR +TPi (10 μM))?
A: The IC50 was 5.8 ± 1.2 nM.

Q: And the “Ratio (1)/(2) MCF-7/HYOR” value (MCF-7/HYOR cells [2]; [6])?
A: The value was 14.

Q: And the “Reduction of cytostatic activity in infected MCF-7/HYOR compared to control MCF-7 cells” value (MCF-7/HYOR cells [2]; M. hyorhinis infection)?
A: Its value is 10 fold and 14 fold.

Q: What about the “Anti-proliferative activity in MCF-7/HYOR after three days pre-incubation with doxycycline” value (MCF-7/HYOR cells [2]; doxycycline, 3 days) of the same molecule?
A: The value was “restores”.

Q: And the “Anti-proliferative activity in MCF-7/HYOR after three days pre-incubation with plasmocin” value (MCF-7/HYOR cells [2]; plasmocin 25 μg/ml, 3 days)?
A: The value was “restores”.

Q: What about the “Active (phosphorylated) metabolites of gemcitabine in M. hyorhinis infected MCF-7 cells” value (MCF-7/HYOR cell cultures) of the same molecule?
A: Its value is “no active metabolite can be detected”.

Q: And the “Reduction in the cytostatic activity upon M. hyorhinis infection” value (OST.TK^− cells)?
A: The value was 70 fold.

Q: And the “Reduction in the cytostatic activity upon M. hyorhinis infection” value (MDA-MB-231 cells)?
A: Its value is 40 fold.

Q: What about the “Concentration causing cell cycle arrest in the S-phase” value (MCF-7 cells [3]) of the same molecule?
A: The value was 0.2 µM.

Q: And the “Higher concentration needed to cause a similar S-phase arrest than in MCF-7” value (MCF-7/HYOR cells [4])?
A: The value was 25 fold.

Q: And the “Activation (phosphorylation) of gemcitabine in MCF-7 cells” value (MCF-7 cells [5])?
A: The value was “readily activated”.
